The target in test [1] is T1, M3 muscarinic receptor subtype (hM3) (Homo sapiens, UniProt P20309).
T1 construct: expressed in transfected cells
The test can be described thus: Radioligand binding assay ([3H]-NMS displacement, CHO cell membranes). Particulars: [3H]-NMS 1 nM, this or a similar assay. The procedure:
CHO cell lines stably expressing cloned human hM1, hM2, hM3 and hM4 muscarinic receptor subtypes, respectively, were grown to near confluency in medium consisting of HAM's F-12 supplemented with 10% FBS and 250 μg/mL Geneticin. The cells were grown in a 5% CO2, 37° C. incubator and lifted with 2 mM EDTA in dPBS. Cells were collected by 5 minute centrifugation at 650×g, and cell pellets were either stored frozen at −80° C. or membranes were prepared immediately. For membrane preparation, cell pellets were resuspended in lysis buffer and homogenized with a Polytron PT-2100 tissue disrupter (Kinematica AG; 20 seconds×2 bursts). Crude membranes were centrifuged at 40,000×g for 15 minutes at 4° C. […] The protein concentration of the membrane suspension was determined by the method described in Lowry, O. et al., Journal of Biochemistry 193:265 (1951). […]
Radioligand binding assays were performed in 96-well microtiter plates in a total assay volume of 100 μL. […] Filter plates were rinsed three times with wash buffer (10 mM HEPES) to remove unbound radioactivity. […] The plates were then counted in a PerkinElmer Topcount liquid scintillation counter (PerkinElmer Inc., Wellesley, Mass.). Binding data were analyzed by nonlinear regression analysis with the GraphPad Prism Software package (GraphPad Software, Inc., San Diego, Calif.) using the one-site competition model. […]

Test [2] has as its target T2, hM3 receptor (CHO cells) (Homo sapiens, UniProt P20309).
T2 construct: expressed in transfected cells
The test can be described thus: Blockade of agonist-mediated calcium release via FLIPR. Type of test: cell-based. As to conditions: CHO cells stably expressing hM3, FLIPR; this or a similar assay. From the text: Muscarinic receptor subtypes (M1, M3 and M5 receptors), which couple to Gq proteins, activate the phospholipase C (PLC) pathway upon agonist binding to the receptor. As a result, activated PLC hydrolyzes phosphatyl inositol diphosphate (PIP2) to diacylglycerol (DAG) and […] (IP3), which in turn generates calcium release from intracellular stores, i.e., endoplasmic and sarcoplasmic reticulum. The FLIPR (Molecular Devices, Sunnyvale, Calif.) assay capitalizes on this increase in intracellular calcium by using a calcium sensitive dye (Fluo-4AM, Molecular Probes, Eugene, Oreg.) that fluoresces when free calcium binds. This fluorescence event was measured in real time by the FLIPR, which detected the change in fluorescence from a monolayer of cells cloned with human M1 and M3, and chimpanzee M5 receptors. Antagonist potency was determined by the ability of antagonists to inhibit agonist-mediated increases in intracellular calcium.
For FLIPR calcium stimulation assays, CHO cells stably expressing the hM1, hM3 and cM5 receptors were seeded into 96-well FLIPR plates the night before the assay was done. […]
To determine antagonist potency, the dose-dependent stimulation of intracellular Ca^2+ release for oxotremorine was first determined so that antagonist potency can later be measured against oxotremorine stimulation at an EC90 concentration. […]

These results are taken from patent US7973055B2, “Crystalline forms of a biphenyl compound” (Theravance, Inc., priority 2006, dated 2011).

T1 sequence (P20309 whole entry): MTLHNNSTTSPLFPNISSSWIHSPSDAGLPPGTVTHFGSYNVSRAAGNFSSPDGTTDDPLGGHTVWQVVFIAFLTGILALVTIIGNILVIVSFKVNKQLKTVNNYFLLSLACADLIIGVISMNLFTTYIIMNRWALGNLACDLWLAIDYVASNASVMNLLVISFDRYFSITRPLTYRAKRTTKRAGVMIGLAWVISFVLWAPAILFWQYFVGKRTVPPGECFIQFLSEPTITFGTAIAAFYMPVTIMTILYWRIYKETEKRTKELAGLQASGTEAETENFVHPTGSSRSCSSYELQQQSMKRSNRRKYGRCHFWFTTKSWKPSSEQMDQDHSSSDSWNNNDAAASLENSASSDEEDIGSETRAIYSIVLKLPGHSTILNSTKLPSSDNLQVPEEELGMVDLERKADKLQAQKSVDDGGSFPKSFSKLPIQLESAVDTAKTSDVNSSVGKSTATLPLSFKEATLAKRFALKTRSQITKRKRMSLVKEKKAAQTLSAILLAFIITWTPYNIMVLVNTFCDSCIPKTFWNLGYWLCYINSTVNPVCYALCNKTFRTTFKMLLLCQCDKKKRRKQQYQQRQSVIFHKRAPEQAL
T2 sequence (P20309 whole entry): as above

For `CN(CCN1CCC(OC(=O)Nc2ccccc2-c2ccccc2)CC1)C(=O)c1cccc(C(=O)NCCNCc2ccc(O)cc2)c1` [compound of formula I, biphenyl-2-ylcarbamic acid 1-[2-({3-[2-(4-hydroxybenzylamino)ethylcarbamoyl]benzoyl}methylamino)ethyl]piperidin-4-yl ester], the Ki (usually a dissociation constant, usually derived from enzyme kinetics or from competition with a known ligand) is < 5 nM in test [1] and < 10 nM in test [2].
